Reference: the NIST ThermoML archive (doi:10.1016/j.jct.2016.10.034)
± gives the expanded uncertainty stated by the source.

Test: xn = mol fraction of the nth substance listed
Conditions: 100 kPa, Liquid; for viscosity: Falling or rolling sphere viscometry; for mass density: Vibrating tube method

CC[N+]1(C)CCCC1.O=C([O-])CO [1-ethyl-1-methylpyrrolidinium glycolate] + O
Conditions	mass density [kg/m3]	viscosity [mPa·s]
298.15 K, x1 = 0.0541	1057.7 ± 1.1	–
298.15 K, x1 = 0.1293	1100.6 ± 1	11.8 ± 1.2
298.15 K, x1 = 0.2024	1118.3 ± 1	25.2 ± 2.5
298.15 K, x1 = 0.2905	1127.2 ± 1	46.2 ± 4.7
298.15 K, x1 = 0.3464	1130 ± 1.1	61.1 ± 6.2
298.15 K, x1 = 0.4258	1132.3 ± 1.1	84 ± 8.6
298.15 K, x1 = 0.5357	1133.9 ± 1.2	119 ± 12
298.15 K, x1 = 0.6086	1134.3 ± 1.4	145 ± 15
298.15 K, x1 = 0.729	1134.7 ± 1.6	195 ± 21
298.15 K, x1 = 0.825	1134.5 ± 1.9	241 ± 27
298.15 K, x1 = 0.8839	1134.3 ± 2	271 ± 31
303.15 K, x1 = 0.0541	1055.1 ± 1	–
303.15 K, x1 = 0.1293	1097.2 ± 1	9.63 ± 0.97
303.15 K, x1 = 0.2024	1114.7 ± 1	19.9 ± 2
303.15 K, x1 = 0.2905	1123.6 ± 1	37.2 ± 3.7
303.15 K, x1 = 0.3464	1126.5 ± 1.1	48.2 ± 4.9
303.15 K, x1 = 0.4258	1128.8 ± 1.1	65 ± 6.6
303.15 K, x1 = 0.5357	1130.4 ± 1.2	90.6 ± 9.3
303.15 K, x1 = 0.6086	1130.9 ± 1.3	110 ± 11
303.15 K, x1 = 0.729	1131.3 ± 1.6	146 ± 16
303.15 K, x1 = 0.825	1131.1 ± 1.9	179 ± 19
303.15 K, x1 = 0.8839	1130.9 ± 2	200 ± 22
308.15 K, x1 = 0.0541	1052.3 ± 1	–
308.15 K, x1 = 0.1293	1093.7 ± 1	8 ± 0.8
308.15 K, x1 = 0.2024	1111.2 ± 1	16.5 ± 1.7
308.15 K, x1 = 0.2905	1120.1 ± 1	30 ± 3
308.15 K, x1 = 0.3464	1123 ± 1.1	38.3 ± 3.9
308.15 K, x1 = 0.4258	1125.4 ± 1.1	51.4 ± 5.2
308.15 K, x1 = 0.5357	1127 ± 1.2	70.8 ± 7.2
308.15 K, x1 = 0.6086	1127.5 ± 1.3	85.4 ± 8.7
308.15 K, x1 = 0.729	1127.9 ± 1.6	112 ± 12
308.15 K, x1 = 0.825	1127.7 ± 1.8	137 ± 15
308.15 K, x1 = 0.8839	1127.6 ± 2	152 ± 16
313.15 K, x1 = 0.0541	1049.5 ± 1	–
313.15 K, x1 = 0.1293	1090.3 ± 1	6.75 ± 0.68
313.15 K, x1 = 0.2024	1107.6 ± 1	13.5 ± 1.4
313.15 K, x1 = 0.2905	1116.6 ± 1	23.5 ± 2.4
313.15 K, x1 = 0.3464	1119.5 ± 1.1	30.5 ± 3.1
313.15 K, x1 = 0.4258	1121.9 ± 1.1	41.3 ± 4.2
313.15 K, x1 = 0.5357	1123.6 ± 1.2	56.4 ± 5.7
313.15 K, x1 = 0.6086	1124.1 ± 1.3	67.6 ± 6.8
313.15 K, x1 = 0.729	1124.6 ± 1.6	87.7 ± 9
313.15 K, x1 = 0.825	1124.4 ± 1.8	106 ± 11
313.15 K, x1 = 0.8839	1124.3 ± 2	119 ± 12
318.15 K, x1 = 0.0541	1046.6 ± 1	–
318.15 K, x1 = 0.1293	1086.8 ± 1	5.69 ± 0.57
318.15 K, x1 = 0.2024	1104 ± 1	11.6 ± 1.2
318.15 K, x1 = 0.2905	1113.1 ± 1	20 ± 2
318.15 K, x1 = 0.3464	1116 ± 1.1	25.4 ± 2.6
318.15 K, x1 = 0.4258	1118.5 ± 1.1	33.8 ± 3.4
318.15 K, x1 = 0.5357	1120.3 ± 1.2	45.7 ± 4.6
318.15 K, x1 = 0.6086	1120.8 ± 1.3	54.2 ± 5.5
318.15 K, x1 = 0.729	1121.3 ± 1.6	70 ± 7.1
318.15 K, x1 = 0.825	1121.1 ± 1.8	83.6 ± 8.6
318.15 K, x1 = 0.8839	1121 ± 2	92.8 ± 9.6
323.15 K, x1 = 0.0541	1043.7 ± 1	–
323.15 K, x1 = 0.1293	1083.3 ± 1	4.85 ± 0.49
323.15 K, x1 = 0.2024	1100.4 ± 1	9.82 ± 0.99
323.15 K, x1 = 0.2905	1109.6 ± 1	16.4 ± 1.7
323.15 K, x1 = 0.3464	1112.6 ± 1.1	20.9 ± 2.1
323.15 K, x1 = 0.4258	1115.2 ± 1.1	27.7 ± 2.8
323.15 K, x1 = 0.5357	1116.9 ± 1.2	37.5 ± 3.8
323.15 K, x1 = 0.6086	1117.5 ± 1.3	44.5 ± 4.5
323.15 K, x1 = 0.729	1118 ± 1.6	56.6 ± 5.7
323.15 K, x1 = 0.825	1117.9 ± 1.8	67 ± 6.8
323.15 K, x1 = 0.8839	1117.7 ± 2	74.6 ± 7.6
328.15 K, x1 = 0.0541	1040.6 ± 1	–
328.15 K, x1 = 0.1293	1079.8 ± 1	4.34 ± 0.44
328.15 K, x1 = 0.2024	1096.8 ± 1	8.55 ± 0.86
328.15 K, x1 = 0.2905	1106.1 ± 1	13.9 ± 1.4
328.15 K, x1 = 0.3464	1109.2 ± 1.1	17.8 ± 1.8
328.15 K, x1 = 0.4258	1111.8 ± 1.1	23.3 ± 2.3
328.15 K, x1 = 0.5357	1113.6 ± 1.2	31.4 ± 3.2
328.15 K, x1 = 0.6086	1114.2 ± 1.3	37.2 ± 3.8
328.15 K, x1 = 0.729	1114.8 ± 1.6	46.8 ± 4.7
328.15 K, x1 = 0.825	1114.6 ± 1.8	55.7 ± 5.6
328.15 K, x1 = 0.8839	1114.5 ± 2	61.9 ± 6.3
333.15 K, x1 = 0.0541	1037.5 ± 1	–
333.15 K, x1 = 0.1293	1076.2 ± 1	4.12 ± 0.41
333.15 K, x1 = 0.2024	1093.3 ± 1	7.54 ± 0.76
333.15 K, x1 = 0.2905	1102.6 ± 1	12.5 ± 1.3
333.15 K, x1 = 0.3464	1105.7 ± 1.1	15.5 ± 1.6
333.15 K, x1 = 0.4258	1108.5 ± 1.1	20 ± 2
333.15 K, x1 = 0.5357	1110.4 ± 1.2	26.5 ± 2.7
333.15 K, x1 = 0.6086	1111 ± 1.3	31.1 ± 3.1
333.15 K, x1 = 0.729	1111.5 ± 1.6	38.8 ± 3.9
333.15 K, x1 = 0.825	1111.4 ± 1.8	45.5 ± 4.6
333.15 K, x1 = 0.8839	1111.3 ± 2	49.9 ± 5.1
338.15 K, x1 = 0.0541	1034.3 ± 1	–
338.15 K, x1 = 0.1293	1072.7 ± 1	3.87 ± 0.77
338.15 K, x1 = 0.2024	1089.7 ± 1	6.81 ± 0.68
338.15 K, x1 = 0.2905	1099.2 ± 1	10.6 ± 1.1
338.15 K, x1 = 0.3464	1102.4 ± 1.1	13.2 ± 1.3
338.15 K, x1 = 0.4258	1105.1 ± 1.1	16.8 ± 1.7
338.15 K, x1 = 0.5357	1107.1 ± 1.2	22.4 ± 2.3
338.15 K, x1 = 0.6086	1107.7 ± 1.3	26.1 ± 2.6
338.15 K, x1 = 0.729	1108.3 ± 1.6	32.6 ± 3.3
338.15 K, x1 = 0.825	1108.3 ± 1.8	38.1 ± 3.9
338.15 K, x1 = 0.8839	1108.2 ± 2	41.6 ± 4.2
343.15 K, x1 = 0.0541	1031.1 ± 1	–
343.15 K, x1 = 0.1293	1069.1 ± 1	3.58 ± 0.72
343.15 K, x1 = 0.2024	1086.1 ± 1	5.96 ± 0.6
343.15 K, x1 = 0.2905	1095.7 ± 1	9.03 ± 0.91
343.15 K, x1 = 0.3464	1099 ± 1.1	11.2 ± 1.1
343.15 K, x1 = 0.4258	1101.8 ± 1.1	14.5 ± 1.5
343.15 K, x1 = 0.5357	1103.9 ± 1.2	19.2 ± 1.9
343.15 K, x1 = 0.6086	1104.6 ± 1.3	22.4 ± 2.3
343.15 K, x1 = 0.729	1105.2 ± 1.5	27.9 ± 2.8
343.15 K, x1 = 0.825	1105.1 ± 1.8	32.4 ± 3.3
343.15 K, x1 = 0.8839	1105.1 ± 2	35.3 ± 3.6
348.15 K, x1 = 0.0541	1027.6 ± 1.1	–
348.15 K, x1 = 0.1293	1065.5 ± 1.1	3.55 ± 1.1
348.15 K, x1 = 0.2024	1082.6 ± 1	5.64 ± 0.57
348.15 K, x1 = 0.2905	1092.9 ± 1	7.83 ± 0.79
348.15 K, x1 = 0.3464	1095.6 ± 1.1	9.71 ± 0.98
348.15 K, x1 = 0.4258	1098.6 ± 1.1	12.5 ± 1.3
348.15 K, x1 = 0.5357	1100.7 ± 1.2	16.6 ± 1.7
348.15 K, x1 = 0.6086	1101.4 ± 1.3	19.3 ± 1.9
348.15 K, x1 = 0.729	1102.1 ± 1.5	24 ± 2.4
348.15 K, x1 = 0.825	1102 ± 1.8	27.7 ± 2.8
348.15 K, x1 = 0.8839	1102 ± 2	30.1 ± 3.1
